Source: patent US20130184272A1, “DIABETES THERAPEUTIC AGENT” (TAKEDA PHARMACEUTICAL COMPANY LIMITED, priority 2010, published 2013)

Legend:
[1] = system: KLF15; test: Adipocyte-related gene expression level: KLF15; type: cell-based
Procedure: (§1) In the same manner as in Example 10, the cells were cultured, and total RNA was extracted using Rneasy96 kit (Qiagen) from the cell immediately before and 6 days after addition of […] of the compound of Reference Example 1. cDNA was prepared from the total RNA using TaqMan reverse transcription reagent (Applied Biosystems), quantitative PCR was performed by ABI PRISM7000 or 7000 using TaqMan Universal PCR master mix (Applied Biosystems) and commercially available primers, and the expression level of each gene was determined. The commercially available primers used were as follows. • C/EBPα (Mm00514283_s1, TaqMan Gene Expression Assays, Applied Biosystems) • C/EBPβ (Mm00843434_s1, TaqMan Gene Expression Assays, Applied Biosystems) • KLF15 (Mm00517792_m1, TaqMan Gene Expression Assays, Applied Biosystems) • PPARγ (Mm00440945_m1, TaqMan Gene Expression Assays, Applied Biosystems)
(§2) The expression level was amended by the amount of 36B4 (Takeda Pharmaceutical Company Limited) in the same manner as in Example 3, and the relative values to the value immediately before addition of each gene compound as 1 are shown in Table 16. The data in Table 16 show mean±standard deviation at n=3-4 (n is the number of samples).

[2] = system: C/EBPα; test: Adipocyte-related gene expression level: C/EBPα; type: cell-based
Procedure: as §1, §2

[3] = system: Male C57BL/6J mice on a high-fat diet; test: Antiobesity, dyslipidemia and diabetes improving effect in mouse fed with high-fat diet; type: in vivo; design: plasma leptin (mg/dL): unit not given here; conditions: for epididymal fat mass / gastrocnemius muscle weight (g/100 g body weight) / hepatocyte weight / mesenteric fat mass: Day 38
Procedure: Male C57BL/6J mice (CLEA Japan, Inc.) were bred from 5-week-old on a high-fat diet (D12451, research diet) while allowing free ingestion of both feed and water to prepare obesity mice. The mice were bred for acclimation for 2 weeks from 21-week-old. The body weight and plasma markers were measured when 23-week-old, the mice were divided into 6 groups (6 per group) such that the values thereof were uniform, and Reference Example 1 (0.01-0.1 mg/kg) or Reference Example 7 (1-3 mg/kg) was orally administered for 5 weeks. After 14 and 28 days, plasma levels of total cholesterol, neutral lipid, glucose, insulin, leptin, adiponectin and glycated hemoglobin were measured. On the last day, the mice were autopsied, and weights of mesenteric fat, epididymal fat, liver and gastrocnemius muscle were measured. The data of Table 18 show mean±standard deviation at n=5-6 (n is the number of samples).

[4] = system: C/EBPβ; test: Adipocyte-related gene expression level: C/EBPβ; type: cell-based
Procedure: as §1, §2

[5] = 10 μm [sic] of compound, 6 days after addition, value immediately before addition = 1

Cc1ncccc1Oc1sc(C(N)=O)c2c1-c1c(cnn1C)CC2 [Ref. Ex. 1, 1-methyl-8-[(2-methylpyridin-3-yl)oxy]-4,5-dihydro-1H-thieno[3,4-g]indazole-6-carboxamide]
KLF15 expression level (amended by 36B4) [1, 5]: 1.4 ± 0.4 | expression level of KLF15 (in words) ([1]; C3H10T1/2 cell): decreased | C/EBPα expression level (amended by 36B4) [2, 5]: 1.6 ± 0.5 | expression level of C/EBPα (in words) ([2]; C3H10T1/2 cell): decreased | average amount of ingestion ([3]; 0.01 mg/kg oral): 3.7 ± 0.2 g/day | body weight (g) change ([3]; 0.01 mg/kg oral): 3.0 ± 1.2 g | body weight ([3]; 0.01 mg/kg oral, Day 0): 40.9 ± 2.5 g | glycated hemoglobin (%) ([3]; 0.01 mg/kg oral, Day 0): 4.5 ± 0.2% | plasma adiponectin (μg/dL)) ([3]; 0.01 mg/kg oral, Day 0): 15.9 ± 3.4 µg/dL | plasma glucose ([3]; 0.01 mg/kg oral, Day 0): 178.1 ± 26.5 mg/dL | plasma insulin ([3]; 0.01 mg/kg oral, Day 0): 4.2 ± 2.0 ng/mL | plasma leptin (mg/dL) ([3]; 0.01 mg/kg oral, Day 0): 54.2 ± 21.0 | plasma neutral fats ([3]; 0.01 mg/kg oral, Day 0): 73.4 ± 15.1 mg/dL | plasma total cholesterol ([3]; 0.01 mg/kg oral, Day 0): 222.1 ± 45.4 mg/dL | glycated hemoglobin (%) ([3]; 0.01 mg/kg oral, Day 14): 4.0 ± 0.3 % | plasma adiponectin (μg/dL)) ([3]; 0.01 mg/kg oral, Day 14): 15.5 ± 2.5 µg/dL | plasma glucose ([3]; 0.01 mg/kg oral, Day 14): 156.0 ± 23.4 mg/dL | plasma insulin ([3]; 0.01 mg/kg oral, Day 14): 6.2 ± 5.8 ng/mL | plasma leptin (mg/dL) ([3]; 0.01 mg/kg oral, Day 14): 71.2 ± 22.0 | plasma neutral fats ([3]; 0.01 mg/kg oral, Day 14): 59.4 ± 18.5 mg/dL | plasma total cholesterol ([3]; 0.01 mg/kg oral, Day 14): 182.6 ± 19.5 mg/dL | glycated hemoglobin (%) ([3]; 0.01 mg/kg oral, Day 28): 3.8 ± 0.4% | plasma adiponectin (μg/dL)) ([3]; 0.01 mg/kg oral, Day 28): 14.7 ± 2.9 µg/dL | plasma glucose ([3]; 0.01 mg/kg oral, Day 28): 162.9 ± 24.4 mg/dL | plasma insulin ([3]; 0.01 mg/kg oral, Day 28): 5.4 ± 3.9 ng/mL | plasma leptin (mg/dL) ([3]; 0.01 mg/kg oral, Day 28): 81.8 ± 23.9 | plasma neutral fats ([3]; 0.01 mg/kg oral, Day 28): 45.5 ± 14.1 mg/dL | plasma total cholesterol ([3]; 0.01 mg/kg oral, Day 28): 187.2 ± 15.9 mg/dL | body weight ([3]; 0.01 mg/kg oral, Day 37): 44.9 ± 2.6 g | epididymal fat mass ([3]; 0.01 mg/kg oral): 0.91 ± 0.26 g | gastrocnemius muscle weight (g/100 g body weight) ([3]; 0.01 mg/kg oral): 0.373 ± 0.030 g/100 g body weight | hepatocyte weight ([3]; 0.01 mg/kg oral): 1.81 ± 0.23 g | mesenteric fat mass ([3]; 0.01 mg/kg oral): 0.87 ± 0.17 g | average amount of ingestion ([3]; 0.03 mg/kg oral): 3.2 ± 0.2 g/day | body weight (g) change ([3]; 0.03 mg/kg oral): -0.2 ± 0.9 g | body weight ([3]; 0.03 mg/kg oral, Day 0): 40.9 ± 2.2 g | glycated hemoglobin (%) ([3]; 0.03 mg/kg oral, Day 0): 4.5 ± 0.1% | plasma adiponectin (μg/dL)) ([3]; 0.03 mg/kg oral, Day 0): 18.0 ± 4.0 µg/dL | plasma glucose ([3]; 0.03 mg/kg oral, Day 0): 178.5 ± 27.8 mg/dL | plasma insulin ([3]; 0.03 mg/kg oral, Day 0): 6.0 ± 3.7 ng/mL | plasma leptin (mg/dL) ([3]; 0.03 mg/kg oral, Day 0): 70.3 ± 19.6 | plasma neutral fats ([3]; 0.03 mg/kg oral, Day 0): 72.3 ± 34.0 mg/dL | plasma total cholesterol ([3]; 0.03 mg/kg oral, Day 0): 238.2 ± 19.0 mg/dL | glycated hemoglobin (%) ([3]; 0.03 mg/kg oral, Day 14): 4.1 ± 0.1 % | plasma adiponectin (μg/dL)) ([3]; 0.03 mg/kg oral, Day 14): 19.5 ± 3.1 µg/dL | plasma glucose ([3]; 0.03 mg/kg oral, Day 14): 154.9 ± 12.1 mg/dL | plasma insulin ([3]; 0.03 mg/kg oral, Day 14): 3.5 ± 2.1 ng/mL | plasma leptin (mg/dL) ([3]; 0.03 mg/kg oral, Day 14): 54.7 ± 19.0 | plasma neutral fats ([3]; 0.03 mg/kg oral, Day 14): 50.9 ± 14.7 mg/dL | plasma total cholesterol ([3]; 0.03 mg/kg oral, Day 14): 165.6 ± 11.3 mg/dL | glycated hemoglobin (%) ([3]; 0.03 mg/kg oral, Day 28): 4.1 ± 0.1% | plasma adiponectin (μg/dL)) ([3]; 0.03 mg/kg oral, Day 28): 16.4 ± 3.8 µg/dL | plasma glucose ([3]; 0.03 mg/kg oral, Day 28): 167.0 ± 20.4 mg/dL | plasma insulin ([3]; 0.03 mg/kg oral, Day 28): 2.7 ± 0.8 ng/mL | plasma leptin (mg/dL) ([3]; 0.03 mg/kg oral, Day 28): 62.4 ± 18.1 | plasma neutral fats ([3]; 0.03 mg/kg oral, Day 28): 54.4 ± 19.8 mg/dL | plasma total cholesterol ([3]; 0.03 mg/kg oral, Day 28): 170.3 ± 13.5 mg/dL | body weight ([3]; 0.03 mg/kg oral, Day 37): 41.0 ± 2.3 g | epididymal fat mass ([3]; 0.03 mg/kg oral): 0.72 ± 0.05 g | gastrocnemius muscle weight (g/100 g body weight) ([3]; 0.03 mg/kg oral): 0.407 ± 0.017 g/100 g body weight | hepatocyte weight ([3]; 0.03 mg/kg oral): 1.56 ± 0.11 g | mesenteric fat mass ([3]; 0.03 mg/kg oral): 0.57 ± 0.11 g | average amount of ingestion ([3]; 0.1 mg/kg oral): 2.7 ± 0.3 g/day | body weight (g) change ([3]; 0.1 mg/kg oral): -4.1 ± 0.7 g | body weight ([3]; 0.1 mg/kg oral, Day 0): 38.8 ± 3.5 g | glycated hemoglobin (%) ([3]; 0.1 mg/kg oral, Day 0): 4.5 ± 0.2% | plasma adiponectin (μg/dL)) ([3]; 0.1 mg/kg oral, Day 0): 16.8 ± 5.7 µg/dL | plasma glucose ([3]; 0.1 mg/kg oral, Day 0): 183.9 ± 35.2 mg/dL | plasma insulin ([3]; 0.1 mg/kg oral, Day 0): 4.3 ± 1.8 ng/mL | plasma leptin (mg/dL) ([3]; 0.1 mg/kg oral, Day 0): 55.7 ± 15.4 | plasma neutral fats ([3]; 0.1 mg/kg oral, Day 0): 63.2 ± 9.1 mg/dL | plasma total cholesterol ([3]; 0.1 mg/kg oral, Day 0): 218.2 ± 19.0 mg/dL | glycated hemoglobin (%) ([3]; 0.1 mg/kg oral, Day 14): 4.0 ± 0.2 % | plasma adiponectin (μg/dL)) ([3]; 0.1 mg/kg oral, Day 14): 22.8 ± 3.8 µg/dL | plasma glucose ([3]; 0.1 mg/kg oral, Day 14): 159.6 ± 26.7 mg/dL | plasma insulin ([3]; 0.1 mg/kg oral, Day 14): 1.4 ± 0.6 ng/mL | plasma leptin (mg/dL) ([3]; 0.1 mg/kg oral, Day 14): 27.4 ± 19.1 | plasma neutral fats ([3]; 0.1 mg/kg oral, Day 14): 25.2 ± 7.6 mg/dL | plasma total cholesterol ([3]; 0.1 mg/kg oral, Day 14): 129.1 ± 15.4 mg/dL | glycated hemoglobin (%) ([3]; 0.1 mg/kg oral, Day 28): 3.8 ± 0.2 % | plasma adiponectin (μg/dL)) ([3]; 0.1 mg/kg oral, Day 28): 19.2 ± 2.9 µg/dL | plasma glucose ([3]; 0.1 mg/kg oral, Day 28): 138.6 ± 17.3 mg/dL | plasma insulin ([3]; 0.1 mg/kg oral, Day 28): 1.4 ± 0.6 ng/mL | plasma leptin (mg/dL) ([3]; 0.1 mg/kg oral, Day 28): 29.2 ± 20.0 | plasma neutral fats ([3]; 0.1 mg/kg oral, Day 28): 34.7 ± 12.5 mg/dL | plasma total cholesterol ([3]; 0.1 mg/kg oral, Day 28): 135.1 ± 15.4 mg/dL | body weight ([3]; 0.1 mg/kg oral, Day 37): 35.6 ± 3.9 g | epididymal fat mass ([3]; 0.1 mg/kg oral): 0.47 ± 0.10 g | gastrocnemius muscle weight (g/100 g body weight) ([3]; 0.1 mg/kg oral): 0.468 ± 0.033 g/100 g body weight | hepatocyte weight ([3]; 0.1 mg/kg oral): 1.37 ± 0.24 g | mesenteric fat mass ([3]; 0.1 mg/kg oral): 0.30 ± 0.08 g | body weight (in words) ([3]; obese mouse model fed with a high-fat diet): clear body weight decreasing action | C/EBPβ expression level (amended by 36B4) [4, 5]: 1.3 ± 0.5 | expression level of C/EBPβ (in words) ([4]; C3H10T1/2 cell): decreased
